Data reported in patent US20230212316A1, “IgG EPITOPE PEPTIDES THAT BIND […] AND METHODS OF USE THEREOF” (priority 2021, published 2023).
Where no end group is shown, it is not given here. [ ]: non-standard residue; d: D form. Cit = NC(=O)NCCC[C@H](N)C(=O)O

Tests used:
[1] = test system: serum IgG (rheumatoid factors); test: Peptide ELISA: serum IgG binding to biotinylated IgG1-derived peptides; parameters: species or system human; details: for Serum IgG binding to the peptide compared to controls: FIG. 3; for IgG binding to the peptide: Sjogren's disease subjects previously RF positive versus matched controls, FIG. 9B
[2] = test system: serum IgM (rheumatoid factors); test: Peptide ELISA: serum IgM binding to biotinylated IgG1-derived peptides; parameters: species or system human; details: for IgM binding to the peptide: Sjogren's disease subjects previously RF positive versus matched controls, FIG. 9B; for IgM that binds to the peptide: COVID-19 convalescent subjects versus RA+, RA−, smokers and naïve controls, FIG. 8A
[3] = test system: plasma IgG; details: anti-CCP+ subjects who later develop RA compared to anti-CCP− subjects and CCP+ subjects who do not develop RA; FIG. 10B
Source text: Human Subjects: Human subjects research was approved by the University of Wisconsin (UW) Institutional Review Board and complied with the Helsinki Declaration. Most sera were obtained from the UW Rheumatology Biorepository, which includes rheumatoid arthritis, systemic lupus erythematosus, Sjögren's disease (SjD), spondyloarthropathy, and controls (including current and never smokers) collected prior to 2019. Subjects were ≥18 years old. All subjects with rheumatic disease were confirmed to have that disease by a rheumatologist. […] Controls were matched by age and gender and carried none of the following diagnoses: RA, lupus, Sjögren's disease, scleroderma, psoriasis, psoriatic arthritis, ankylosing spondylitis, reactive arthritis, ulcerative colitis, Crohn's disease, multiple sclerosis, type I diabetes, hematologic malignancy, or past COVID-19.
Enzyme Linked Immunosorbent Assay (ELISA): For peptide ELISA, plates were coated with 5 μg/ml streptavidin (Thermo Fisher Scientific) for 1 hour at room temperature (RT) or overnight at 4 degrees Celsius, washed with PBS, then coated with 0.1-1.0 μM of peptide conjugated to biotin at the C terminus (Biomatik, Kitchener, Canada or Peptide2.0, Chantilly, Va., USA) for 1 hour at RT. For IgG Fc ELISA, plates were coated overnight at 4° C. with 10 μg/ml IgG Fc in PBS in 4 forms: treated with PADs in buffer, treated with 0.1M KOCN in dH2O, diluted in citrullination buffer, diluted in dH2O. After washing with PBS, plates were blocked for 1 hour to overnight at RT with 5% non-fat dried milk in 0.2% Tween 20 in PBS (serum ELISA block) or 1% BSA in PBS (mAMPA ELISA block without 0.1% Tween 20). Sera diluted 1:100, 1:200 or 1:2000 in serum ELISA block or 1 μg/m1mAMPAs in mAMPA ELISA block were applied to plates overnight at 4° C. […] After one hour at RT, plates were washed, developed with 3,3′,5,5′-tetramethylbenzidine (Thermo Fisher Scientific), then stopped with 0.18 M sulfuric acid. Plates were read on a FilterMAX F3 (Molecular Devices, San Jose, USA) at 450 and 562, with 562 values subtracted from 450 values for each sample. For each sample, absorbance values for uncoated wells were subtracted from peptide- or Fc-coated wells to exclude non-specific binding, and absorbance values for PAD-containing buffer were subtracted from wells coated with PAD-treated IgG Fc to exclude anti-PAD reactivity.

[4] = test system: plasma IgM; test: Pre-clinical RA peptide ELISA: plasma IgM binding to IgG1 peptides; parameters: species or system human; details: CCP− controls and anti-CCP+ subjects who do not develop RA imminently compared to anti-CCP+ subjects who do develop RA imminently; FIG. 10A
Source text: Subjects were ≥18 years old.

[5] = COVID-19 convalescent subjects, 5 weeks post-symptom resolution (n=121)
[6] = Control (non-smoking COVID-19 naïve controls without autoimmune disease, n=54)
[7] = RA+ (seropositive rheumatoid arthritis subjects, n=31)
[8] = RA− (seronegative rheumatoid arthritis subjects, n=26)

Sequence	Percent of subjects that would be considered seropositive for IgM antibodies against the peptide using a preliminary cutoff [2, 5] [%]	Percent of subjects that would be considered seropositive for IgM antibodies against the peptide using a preliminary cutoff [2, 6] [%]	Percent of subjects that would be considered seropositive for IgM antibodies against the peptide using a preliminary cutoff [2, 7] [%]	Percent of subjects that would be considered seropositive for IgM antibodies against the peptide using a preliminary cutoff [2, 8] [%]	IgM binding to the peptide [2]	Percent of subjects that would be considered seropositive for IgM antibodies against the peptide using a preliminary cutoff ([2]; Smoker (current smokers, n=10)) [%]	IgG binding to the peptide [1]	IgM that binds to the peptide [2]	Plasma IgG that binds to the peptide [3]	further results
CPPCPAPELLGGPSV (IgG epitope) [Peptide P01857-109, native peptide from the hinge region of IgG1 starting at position 109]										Serum IgG binding to the peptide compared to controls ([1]; anti-CCP+RF+ RA): trend towards increased binding; Serum IgG binding to the peptide compared to controls ([1]; anti-CCP-RF− RA): no increased binding; Serum IgG binding to the peptide compared to controls ([1]; anti-SSA+ Sjögren's disease): significantly increased binding; Serum IgG binding to the peptide compared to controls ([1]; lupus): but not lupus or spondyloarthropathy serum IgG, had significantly increased binding; Serum IgG binding to the peptide compared to controls ([1]; spondyloarthropathy): but not lupus or spondyloarthropathy serum IgG, had significantly increased binding
DKTHTCPPCPAPELLG (IgG epitope) [Peptide P01857-104, native IgG1 hinge peptide, position 104]	14	2	23	12	bound	20	bound			
KDTLMISRTPEVTCVV (IgG epitope) [Peptide P01857-131, native IgG1 peptide, position 131]	45	2	0	0	not bound	0	not bound	increased		
LAPSSJSTSGGTAALGC [Peptide P01857-11J]									higher	
LTVDKSRWQQGNVFSC (IgG epitope) [Peptide P01857-293, native IgG1 peptide, position 293]	12	0	3	0	not bound	0	not bound	increased		IgG that binds to the peptide ([1]; COVID-19 convalescent subjects versus RA+, RA−, smokers and naïve controls, FIG. 8B): increased
LYSJLTVDJSRWQQGNVFS [Peptide P01857-289J]									higher	
LYSKLTVDKSBWQQGNVFS (LYSKLTVDKS[Cit]WQQGNVFS) [Peptide P01857-289B, citrulline (B)-containing IgG1 peptide, position 289]										Plasma IgM that binds to the peptide [4]: higher
RDELTKNQVSLTCLVK (IgG epitope) [Peptide P01857-238, native IgG1 peptide, position 238]	44	0	6	4	not bound	0	not bound	increased		
TYICNVNHJPSNTJVDJJVEPJSC [Peptide P01857-80J]									higher	
YJCJVSNJALPAP [Peptide P01857-202J]									higher	
